US20100316590A1, “COMPOSITIONS AND METHODS RELATED TO POLOXAMER COPOLYMER MEMBRANE SEALANT” (THE BOARD OF REGENTS OF THE UNIVERSITY OF TEXAS SYSTEM, priority 2009, published 2010)

Tested on: SH-SY5Y human neuroblastoma cells

Row | Substance | reduction in cell viability of cells treated with P188 alone compared to untreated controls | toxicity of poloxamer on its own to the cells compared to untreated controls
1 | poloxamer 188 [Poloxamer P188] | not statistically significant | –
2 | poloxamer 407 [Poloxamer P407] | – | non-toxic
